How the values were obtained:
Assay type in all cases: in vivo
[1] = test system: tomato plants (Lycopersicon es.); assay: Experiment Fe-4: addition of low levels of iron to CPPA, foliar application; conditions: for Leaf # / Plt. Ht. / Plt. Wt. / Root Wt. / Shoot Wt. / Vigor: foliar
Excerpt: Experiment Fe-4: The purpose of this experiment was to determine if the addition of low levels of iron to a CPPA sample containing lower than typical amounts of iron (e.g., Fe/TOC=0.135) would increase the biological response of plants. Nominal Fe/TOC ratios for CPPA range from 0.10 to 0.28 but the optimum ratio for “as-is” samples of CPPA, as determined in the previous experiments, is between 0.2 and 0.25. Thus, for this experiment, non-agrochemically effective amounts of iron were combined with CPPA samples. Tomato plants (Lycopersicon es.) were produced from seed and transplanted into 3 inch by 3 inch pots. There were 16 treatments plus an untreated check with 20 replicates per treatment arranged in a Randomized Complete Block design. Pots were treated with water (UTC), or CPPA only (3 different rates), Fe only (3 different rates), or CPPA and Fe at each of the rates. The CPPA rates corresponded to 260, 520, and 1040 mg organic carbon (TOC) per hectare and the Fe rates corresponded to 130, 260, and 520 mg Fe per hectare. All pots were treated by foliar application immediately after transplanting. Ten days after the application, ten of the plants were harvested and assessed for vigor, leaf number, plant height, plant weight, root weight, and shoot weight. […] Additional application rates of CPPA and Fe were evaluated with similar synergistic results observed for the combination of CPPA with amounts of iron. Twenty days after transplanting, the remaining ten plants in each treatment were assessed.

seeds = assay: Seed treatment observations with CPPA, iron-removed CPPA and Fe; conditions: treating seeds with Fe alone
Excerpt: These observations support the premise that the combination of CPPA and Fe are synergistic in their interaction and biological effect on plants and/or seeds.

[2] = test system: wheat seeds (Triticum aestivum); assay: Experiment Salt-3: soil treatments of CPPA/salt formulations; conditions: soil drench, 28 days after treatment
Experimental: For this experiment, wheat seeds (Triticum aestivum) were planted in small pots, approximately 1 inch in diameter and an inch in depth. There were a total of 8 treatments plus an untreated check, with 20 replicates per treatment arranged in a randomized block design. […] Treatments contained CPPA alone, salt alone, or CPPA plus salt. Two rates of CPPA were used; the first was equivalent to 520 mg of TOC per hectare and a second equivalent to 1040 mg of TOC per hectare. […] Twenty eight days after treatment the plants were assessed for plant weight, root weight, and shoot weight. FIG. 19 depicts plant weight, root weight, and shoot weight results for treatments with 520 mg CPPA/ha in combination with varying salt rates, which are summarized in Table 12.

[3] = test system: tomato plants (Lycopersicon es.); assay: Experiment Salt-2: foliar treatment of CPPA/salt formulations; conditions: ten and twenty day assessments averaged
Experimental: There were a total of 8 treatments plus an untreated check, with 20 replicates per treatment arranged in a randomized block design. Aqueous solutions of CPPA (1000 mg TOC/L) and salt (5000 mg/L) were used for this experiment and all plants were treated with a foliar application at the time they were transplanted into the pots. Each treatment contained CPPA alone, salt alone, or CPPA plus salt. Two rates of CPPA were used; the first was equivalent to 260 mg of TOC per hectare and a second equivalent to 1040 mg of TOC per hectare. […] All treatments were diluted with water to provide a final spray volume equivalent to 208 lit per hectare, applied with a spray bottle, with just enough spray solution to wet the leaf surface of each plant. Ten days after applications, ten each of the plant samples in each treatment were assessed for vigor, leaf number, plant height, plant weight, root weight, and shoot weight. Assessments were repeated at twenty days with the remaining ten plants of each treatment and the results were averaged. FIG. 17 depicts observed vigor, leaf number, plant height, plant weight, root weight, and shoot weight results for treatments to the tomato plants with 0 mg and 260 mg CPPA/ha application rate with variable salt application rates, which are also summarized in Table 4.

[4] = test system: tomato plants (Lycopersicon es.); assay: Experiment Salt-1: CPPA/NaCl composition, foliar application
Experimental: Experiment Salt-1: […] There were a total of 5 treatments plus an untreated check, each with 10 replicates per treatment arranged in a randomized block design. […] Each treatment comprised samples treated with CPPA alone, salt alone, or CPPA plus salt. Two rates of CPPA were used; the first was equivalent to 520 mg of TOC per hectare and a second equivalent to 1040 mg of TOC per hectare. Salt was applied at a rate equivalent to 2.6 g of salt per hectare. All treatments were diluted with water to provide a final spray volume equivalent to 208 lit per hectare, made with a spray bottle, with just enough spray solution to wet the leaf surface of each plant. Ten days after treatment the plants were assessed for vigor, leaf number, plant height, plant weight, root weight, shoot weight, and leaf conductance using a SPAD meter and are summarized in Table 8 and depicted in FIGS. 10-16.

[5] = CPPA 260 mg TOC/ha and/or Fe 130 mg Fe/ha (FeSO4), second assessment, 20 days after application
[6] = CPPA 520 mg TOC/ha and/or Fe 130 mg Fe/ha (FeSO4), 20 days after application
[7] = CPPA 1040 mg TOC/ha and/or Fe 520 mg Fe/ha (FeSO4), first assessment, 10 days after application
[8] = CPPA 1040 mg TOC/ha and/or Fe 520 mg Fe/ha (FeSO4), second assessment, 20 days after application
[9] = CP 520 mg/ha and/or NaCl 1300 mg/ha
[10] = CP 1040 mg TOC/ha and/or NaCl 1300 mg/ha
[11] = NaCl 2600 mg/ha alone or with CP 520 mg/ha
[12] = NaCl 2600 mg/ha alone or with CP 1040 mg TOC/ha
[13] = CP 1040 mg/ha and/or NaCl 1300 mg/ha
[14] = NaCl 2600 mg/ha alone or with CP 1040 mg/ha
[15] = CPPA 520 mg TOC/ha and/or NaCl 2600 mg/ha, ten days after treatment

O=S(=O)([O-])[O-].[Fe+2] [Fe, FeSO4]
Leaf # [1, 5]: 6.3 ab
Plt. Ht. [1, 5]: 6.4 abc
Plt. Wt. [1, 5]: 6.4 c
Root Wt. [1, 5]: 3.0 c
Shoot Wt. [1, 5]: 3.4 cd
Vigor [1, 5]: 2.1 c
Leaf # [1, 6]: 6.3 ab
Plt. Ht. [1, 6]: 6.4 ab
Plt. Wt. [1, 6]: 6.4 b
Root Wt. [1, 6]: 3.0 b
Shoot Wt. [1, 6]: 3.4 ab
Vigor [1, 6]: 2.1 c
Leaf # [1, 7]: 6.6 ab
Plt. Ht. [1, 7]: 4.2 b
Plt. Wt. [1, 7]: 4.9 b
Root Wt. [1, 7]: 1.4 bc
Shoot Wt. [1, 7]: 3.6 b
Vigor [1, 7]: 3.8 b
Leaf # [1, 8]: 5.1 b
Plt. Ht. [1, 8]: 6.3 b
Plt. Wt. [1, 8]: 4.5 b
Root Wt. [1, 8]: 1.6 bc
Shoot Wt. [1, 8]: 2.9 cd
Vigor [1, 8]: 2.5 c
biological effect on plant, root and shoot weights relative to UTC ([1]; high application rate of CPPA alone or of Fe alone, FIG. 9F, Table 4): apparent slightly negative biological effect on the plant, root and shoot weights, although it was not statistically significant
root development and shoot development (seeds): negative effect on root development and on shoot development

[Cl-].[Na+] [NaCl]
Plt. Wt. [2, 9]: 2.1cd
Root Wt. [2, 9]: 0.4bc
Shoot Wt. [2, 9]: 1.8c
Plt. Wt. [2, 10]: 2.1de
Root Wt. [2, 10]: 0.4cd
Shoot Wt. [2, 10]: 1.8 days
Plt. Wt. [2, 11]: 2 days
Root Wt. [2, 11]: 0.3cd
Shoot Wt. [2, 11]: 1.7c
Plt. Wt. [2, 12]: 2e
Root Wt. [2, 12]: 0.3de
Shoot Wt. [2, 12]: 1.7 days
Leaf # [3, 13]: 4.7 de
Plt. Ht. [3, 13]: 4.7 cd inches
Plt. Wt. [3, 13]: 3.7 d grams
Root Wt. [3, 13]: 1.4 cd grams
Shoot Wt. [3, 13]: 2.3 e grams
Vigor (1-5) [3, 13]: 2.9 de
Leaf # [3, 14]: 4.1 f
Plt. Ht. [3, 14]: 4.1 e inches
Plt. Wt. [3, 14]: 3 de grams
Root Wt. [3, 14]: 1.0 d grams
Shoot Wt. [3, 14]: 2.0 ef grams
Vigor (1-5) [3, 14]: 2.2 g
Leaf # [4, 15]: 5.3 e
Plt. Ht. [4, 15]: 3.5 b
Plt. Wt. [4, 15]: 2.7 c
Root Wt. [4, 15]: 0.8jc
SPAD (leaf conductance using a SPAD meter) [4, 15]: 24.2 b
Shoot Wt. [4, 15]: 2.0 c
Vigor [4, 15]: 2.4 b
phytotoxicity of salt and its mitigation ([4]; Table 8, ten days): expected poorest results, indicating a significant amount of phytotoxicity

Source: patent publication US12193442B2, “Modulation of plant biology” (FBSCIENCES HOLDINGS, INC., priority 2012, dated 2025)
